The subject of series [1] is CAR, constitutive androstane receptor. The experiment in a line: Nuclear receptor transactivation assay in Caco-2 cells (CAR). To be noted: FIG. 4. It counts as cell-based. Here is the method:
(§1) FIG. 4. Nuclear Receptor transactivation assays in caco-2 (day 0) cells. Methods used are published (33). Assays were performed at least two times in triplicate CAR, constitutive androstane receptor; TCBOPOP, CAR ligand; LXR, Liver X receptor; T0901315, LXR ligand. n.s, not significant.
(§2) IPA/Indoles can have weak (˜2 fold) but important effects on the activation of other nuclear receptors (e.g., CAR, LXR) (33). […] Some receptors, specifically CAR and LXR, can act to induce liver steatosis (79, 83-86) and hepatocarcinogenesis (CAR) (80, 84, 87-89) and thus, avoiding excessive activation of these nuclear receptors in the context of PXR activation would be important. […] CDK5 (along with CDK2) are important kinases that phosphorylate and inhibit PXR activation (90). Accordingly, based on the data, it is unlikely that FKK5 activates PXR via inhibition of CDK5.

Series [2] has as its system LXR, Liver X receptor. The experiment in a line: Nuclear receptor transactivation assay in Caco-2 cells (LXR). It counts as cell-based. The following applies: FIG. 4. Here is the method: as §1, §2
In series [3] the target is CDK5/p25 enzyme (Homo sapiens, UniProt Q00535). The experiment in a line: ADP-Glo kinase assay with CDK5/p25 enzyme. It counts as biochemical. The following applies: up to 20 μM. Here is the method:
FIG. 5. ADP-Glo kinase with CDK5/p25 enzyme. Michaelis-Menton fit of RLU values across FKK5 concentrations after enzyme and time of incubation was optimized. The fit is nearly similar with one curve describing all concentration effects. Km˜0.01483; Ki˜4.656e+099; Vmax˜53380.
as §2
On the technique in general: ADP-Glo turns the ADP formed in a reaction into a luminescent signal.

The test system of series [4] is plated hepatocytes. The experiment in a line: LDH release assay in plated hepatocytes. Type of series: cell-based. The following applies: 24 h and 48 h exposure; FIG. 1. Here is the method: FIG. 1A-1B. FKK compound cytotoxicity assay. (A) MTT cell cytotoxicity assay in LS180 cells lines (NCBI Bookshelf: world wide web ncbi.nlm.nih.gov/books/NBK144065/). […] (B) LDH release assay performed in plated hepatocytes after a 24 h and 48 h exposure. For both panels, assays were performed at least two times in triplicate.
A very unique feature of simple indole structures (FKK1-10) is that they are predicted to have very short systemic residence times limiting systemic drug exposure and any potential for off-target effects in organs other than the intestines (78).
For orientation: LDH leaks from cells whose membrane has failed.

The target of series [5] is T1, PXR (Homo sapiens, UniProt O75469).
T1 sequence (O75469 1-434): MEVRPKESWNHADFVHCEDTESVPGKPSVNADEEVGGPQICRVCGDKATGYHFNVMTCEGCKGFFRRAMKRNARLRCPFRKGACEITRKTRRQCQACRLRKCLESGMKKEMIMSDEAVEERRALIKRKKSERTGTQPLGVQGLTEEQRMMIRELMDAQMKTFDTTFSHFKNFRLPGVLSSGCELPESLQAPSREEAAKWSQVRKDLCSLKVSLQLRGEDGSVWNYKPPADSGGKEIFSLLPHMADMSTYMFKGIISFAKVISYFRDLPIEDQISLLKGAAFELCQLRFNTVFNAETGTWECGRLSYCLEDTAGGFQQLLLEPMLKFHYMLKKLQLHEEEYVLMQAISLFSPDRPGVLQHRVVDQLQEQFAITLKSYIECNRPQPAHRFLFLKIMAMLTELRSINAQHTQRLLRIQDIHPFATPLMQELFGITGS
The experiment in a line: Isothermic titration calorimetry (ITC). It counts as binding. To be noted: FIG. 11.

Series [6] deals with IL-8. The experiment in a line: TNF-induced IL-8 in human intestinal organoids. It counts as cell-based. To be noted: initial experiment n=2, FIG. 12. From the text:
Intestinal organoids were developed using human small intestines and stem cell isolation and propagation in vitro.

The target in series [7] is T1, PXR. The experiment in a line: PXR activation (transactivation) luciferase assay in LS180 cells. Details: co-transfecting full-length expressing human PXR plasmid (91) and p3A4 luciferase reporter (92) in LS180 or Caco-2 cells; expressed in transfected cells; host or cells: LS180. It counts as cell-based. Here is the method:
FIG. 6A-6E. Activation and inhibition studies with different FKK compounds. (A) PXR activation, LS180 cells (upper), and PXR inhibition, LS180 cells, co-incubation with RIF (lower). (B) AhR activation, AZ-AHR cells (upper), and AhR inhibition, AZ-AHR cells, co-incubation with TCDD (lower). (C) GR activation, AZ-GR cells (upper), and VDR activation, IZ-VDRE cells (lower). (D) TR activation, PZ-GR cells (upper), and AR activation, AIZ-AR cells (lower). (E) Displacement of radiolabeled 9-cis-retinoic acid (RA) by FKK compounds.
Two molecules that were readily available (Ryan Scientific: FKK999 & BAS451) were purchased and tested in vitro for PXR activation using a HepG2 reporter assay. […] […]. […] In general, reporter cell lines are efficient ways to screen for PXR ligands (72). In the LS180 intestinal cell line, the PXR activation assay involves a transient transfection system using a specific PXR plasmid and reporter plasmid (CVmax % 11.2+2; CVmid % 10.8+0.1.4; Signal Window 6.2+1.1; Z′ factor 0.51+0.005).
All the synthesized compounds and intermediates were tested for their potential to activate PXR and/or AhR via luciferase assays. The PXR activation assays were performed by co-transfecting full-length expressing human PXR plasmid (91) and p3A4 luciferase reporter (92) in LS180 or Caco-2 cells. AhR activation conducted using stably co-transfected HepG2 reporter cells as previously described (93). […] With the exception of FKK6, there was no significant inhibition of TCDD-induced AhR activation. […] Independent verification of AhR activity of randomly selected compounds—FKK 5, 6 and 9—was performed in a separate laboratory (GHP). Nuclear receptor selectivity was assessed for FKK compounds for GR, ADR, TR and AR using cell-based luciferase assays previously described (93-102). There was no observed biologically significant (>2-fold) induction of nuclear receptor activity (FIG. 6C). RXR ligand displacement is only significant for FKK1 and FKK8 (FIG. 6D).

Entries after “also recorded” stand apart in the source; their conditions may differ.

CDK5/p25 enzyme, sequence (Q00535 whole entry, species assumed): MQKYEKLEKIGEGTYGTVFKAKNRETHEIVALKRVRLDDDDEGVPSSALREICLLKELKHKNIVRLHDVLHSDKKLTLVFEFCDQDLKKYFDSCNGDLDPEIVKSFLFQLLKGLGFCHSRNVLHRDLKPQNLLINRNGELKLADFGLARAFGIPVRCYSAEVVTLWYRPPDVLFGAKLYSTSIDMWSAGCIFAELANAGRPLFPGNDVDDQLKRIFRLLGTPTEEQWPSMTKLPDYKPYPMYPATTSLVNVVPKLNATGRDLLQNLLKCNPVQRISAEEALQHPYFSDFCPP
CDK5/p25 enzyme, sequence (Q15078 99-307 partner limits assumed, species assumed): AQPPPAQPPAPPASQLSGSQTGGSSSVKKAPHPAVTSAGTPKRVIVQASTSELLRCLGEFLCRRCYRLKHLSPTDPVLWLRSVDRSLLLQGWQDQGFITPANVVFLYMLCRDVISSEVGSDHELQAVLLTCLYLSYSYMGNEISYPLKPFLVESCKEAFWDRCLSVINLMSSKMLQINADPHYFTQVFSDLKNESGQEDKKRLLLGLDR

As to `O=C(c1ccncc1)c1cc2ccccc2n1S(=O)(=O)c1ccccc1` [FKK5], in series [1], the CAR activation result is “does not activate” and the “CAR function with increasing concentrations” value is on record as “CAR function is inhibited”. Besides, in series [2], the LXR activation entry was “does not activate”. In addition, the “inhibition of CDK5/p25 enzyme” value in series [3] is “does not inhibit”. Besides, the cytotoxicity in hepatocytes result in series [4] is recorded as “no cytotoxicity observed”. In addition, the “binding to human PXR” value in series [5] was “efficient and direct binding”. Besides, the “TNF-induced IL-8 expression” value in series [6] was “significant attenuation; also recorded: reduces pro-inflammatory cytokine IL-8 expression”. The same compound had an EC50 in series [7] of 1680 nM. In series [7] (read-out: Emax/Emax[rifampicin, positive control]), the Emax is 128%.

What is called EC50 is the midpoint of the concentration-response curve.
